From patent EP0167385B1, “Antiviral compounds, treatment and formulations” (THE WELLCOME FOUNDATION LIMITED, priority 1984, dated 1986)
Read-outs that look alike come from different tables or passages of the source.

Tests used:
VZV = assay: antiviral test against VZV; settings: antiviral tests, general statement
HSV-1 = settings: concentrations up to 100 ug; Ogilvy et al, Nucleosides and Nucleotides (1983); cited from earlier work
Epstein-Barr Virus (EBV) = assay: EBV-specific cRNA-DNA hybridization, EBV genome equivalents in P3HR-1 cells; assay type: cell-based
Protocol: 1-[2-Hydroxy-1-(hydroxymethyl)ethoxymethyl]cytosine was assayed for activity against Epstein-Barr Virus (EBV) using an adaptaion of the procedure described in Nature New Biology, 233, 103-106 (1971). This technique, employing an EBV-specific cRNA-DNA hybridization on filter membranes, detects the amount of EBV genome equivalents produced in the virus-producing cell lines. In this assay the EBV-producing cell line […]-1 (ATCC HTB 62) was exposed to various concentrations of 1-[2-hydroxy-1-(hydroxymethyl)-ethoxymethyl]cytosine for 14 days and EBV genome equivalents per cell were then determined to give an ED50 of approximately 0.05 μM.

human CMV = assay: plaque reduction assay in human foreskin fibroblast monolayers; assay type: cell-based; settings: for EC50: Human betaherpesvirus 5, Fibroblast, 192 h, Human Foreskin Fibroblasts, 8 days, read-out: ED₅₀
Protocol: Confluent monolayers of human diploid fibroblast cells (i.e., human foreskin fibroblast cells) were infected with 200-300 µL of a suspension containing 50-100 human CMV infectious virions per culture well and allowed to incubate for 90 minutes at 37 degrees C in a CO₂ incubator. Unadsorbed virus was then removed by aspiration and appropriate concentrations of 1-[2-hydroxy-1-(hydroxymethyl)ethoxymethyl] cytosine were added in Eagle's Minimal Essential Media containing 2% fetal calf serum in an agarose overlay (0.6%). The assay plates were incubated at 37 degrees C in a CO₂ incubator for 8 days to allow plaque development. The monolayers were then fixed with 10% formalin in phosphate buffered saline and stained wth 0.8% crystal violet. The plaques were counted at 3x magnification using a Bausch and Lomb dissecting microscope, and the data were analysed by SAS Probit (SAS Institute, Inc., Cary, N.C., U.S.A.) to give the following results: […]

[1] = urine levels after oral administration, rats; assay type: in vivo; settings: compared with oral administration of the compound of formula (I) itself
[2] = toxicity in mice after administration by gavage; assay type: in vivo; settings: 44.5 mg per kg by gavage, suspension in 5% Tween 80, 28 male CD-1 mice
Protocol: The compound of formula (II) was administered to 28 male CD-1 mice by gavage. The dose was 44.5 mg per kg of body weight and was in suspension in 5% Tween 80 at a concentration of 5 mg/ml.

[3] = urine levels after oral administration, mice; assay type: in vivo; settings: compared with oral administration of the compound of formula (I) itself
[4] = antiviral tests, general statement

In the case of `Nc1ccn(COC(CO)CO)c(=O)n1` [1-[2-Hydroxy-1-(hydroxymethyl)ethoxymethyl]cytosine], the “activity against VZV” value (VZV) is given as “surprisingly good activity”, the “activity against HSV-1” value (HSV-1) is given as “no activity” and the “activity against EBV” value (Epstein-Barr Virus (EBV); [4]) is given as “surprisingly good activity”. The EC50 (Epstein-Barr Virus (EBV); human gammaherpesvirus 4, 336 h, P3HR-1 (ATCC HTB 62) cells exposed for 14 days, read-out: ED₅₀ (EBV genome equivalents per cell)) was roughly 0.05 µM, the EC50 (human CMV; Virus Strain ATCC VR-538 (strain AD169)) was 3.7 ± 0.7 µM and the EC50 (human CMV; Virus Strain Kerr) was 1.9 ± 0.2 µM. For the same compound, the “activity against CMV” value (human CMV; [4]) was “surprisingly good activity”.

In the case of `CC(C)(C)C(=O)OCC(COC(=O)C(C)(C)C)OCn1ccc(N)nc1=O` [compound of formula (II), 2-[(4-Amino-1,2-dihydro-2-oxo-1-pyrimidinyl)methoxy]-1,3-propanediyl Dipivalate], the “body fluid levels of the compound of formula (I), as demonstrated by urine levels” value [1] is reported as “substantially higher”, the signs of toxicity [2] is reported as “No signs of toxicity were observed” and the “body fluid levels of the compound of formula (I), as demonstrated by urine levels” value [3] is reported as “substantially higher”.
